The term IC50 denotes the concentration that gives 50% inhibition.

61 compounds from patent US8778951B2, “Heteroaryl compounds and their uses” (Novartis AG, priority 2009, dated 2014) can be followed below.

Sequence of Cdk9/cyclinT1 (P50750 whole entry): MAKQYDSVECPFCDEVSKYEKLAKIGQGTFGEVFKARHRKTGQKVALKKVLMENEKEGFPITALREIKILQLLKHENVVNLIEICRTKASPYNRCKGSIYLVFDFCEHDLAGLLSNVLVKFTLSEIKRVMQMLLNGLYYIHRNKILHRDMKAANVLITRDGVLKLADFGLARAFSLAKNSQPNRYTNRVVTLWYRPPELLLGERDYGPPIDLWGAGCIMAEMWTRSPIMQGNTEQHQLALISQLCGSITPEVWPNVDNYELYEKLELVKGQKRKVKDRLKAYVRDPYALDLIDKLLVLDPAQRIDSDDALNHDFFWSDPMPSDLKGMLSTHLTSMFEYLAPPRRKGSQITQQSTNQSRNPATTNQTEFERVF
Sequence of Cdk9/cyclinT1 (O60563 whole entry partner): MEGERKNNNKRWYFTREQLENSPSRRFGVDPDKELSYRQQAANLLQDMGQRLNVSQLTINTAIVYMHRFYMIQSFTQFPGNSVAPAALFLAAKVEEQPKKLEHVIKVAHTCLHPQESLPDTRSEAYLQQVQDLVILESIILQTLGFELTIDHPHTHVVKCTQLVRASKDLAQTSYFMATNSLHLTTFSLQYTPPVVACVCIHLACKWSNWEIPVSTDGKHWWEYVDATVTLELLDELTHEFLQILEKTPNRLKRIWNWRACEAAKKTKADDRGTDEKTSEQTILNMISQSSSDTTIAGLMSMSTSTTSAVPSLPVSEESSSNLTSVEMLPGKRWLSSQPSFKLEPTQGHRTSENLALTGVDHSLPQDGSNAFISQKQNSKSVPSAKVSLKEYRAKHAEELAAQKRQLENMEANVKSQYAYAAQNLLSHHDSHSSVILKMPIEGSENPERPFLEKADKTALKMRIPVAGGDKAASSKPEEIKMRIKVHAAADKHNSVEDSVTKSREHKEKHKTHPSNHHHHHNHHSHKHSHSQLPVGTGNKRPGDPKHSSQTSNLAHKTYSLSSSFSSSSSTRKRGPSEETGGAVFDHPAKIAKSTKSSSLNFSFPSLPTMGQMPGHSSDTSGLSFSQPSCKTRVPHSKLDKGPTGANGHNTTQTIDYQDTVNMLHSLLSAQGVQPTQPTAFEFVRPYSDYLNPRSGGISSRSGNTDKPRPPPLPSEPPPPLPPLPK

In the test the target is Cdk9/cyclinT1 (Homo sapiens (Human), UniProt P50750). The test is described as follows: Cdk9/CyclinT1 IMAP Protocol (fluorescence polarization kinase assay). The test is classed as biochemical. Particulars: Table 2; generated using one of the two Cdk9/cyclinT1 assays (IMAP or Alpha Screen), not specified which; unit inferred. The procedure:
Cdk9/CyclinT1 IMAP Protocol
The biological activity of the compounds of the invention can be determined using the assay described below.
Cdk9/cyclinT1 is purchased from Millipore, cat #14-685. The final total protein concentration in the assay 4 nM. […] The final concentration of peptide substrate is 100 nM. The ATP substrate (Adenosine-5′-triphosphate) is purchased from Roche Diagnostics, cat#1140965. The final concentration of ATP substrate is 6 uM. IMAP (Immobilized Metal Assay for Phosphochemicals) Progressive Binding reagent is purchased from Molecular Devices, cat#R8139. Fluorescence polarization (FP) is used for detection. The 5TAMRA-cdk7tide peptide is phosphorylated by Cdk9/cyclinT1 kinase using the ATP substrate. The Phospho-5TAMRA-cdk7tide peptide substrate is bound to the IMAP Progressive Binding Reagent. The binding of the IMAP Progressive Binding Reagent changes the fluorescence polarization of the 5TAMRA-cdk7tide peptide which is measured at an excitation of 531 nm and FP emission of 595 nm. Assays are carried out in 100 mM Tris, pH=7.2, mM MgCl2, 0.05% NaN3, 0.01% Tween-20, 1 mM dithiothreitol and 2.5% dimethyl sulfoxide. IMAP Progressive Binding Reagent is diluted 1:800 in 100% 1× Solution A from Molecular Devices, cat#R7285.
General protocol is as follows: To 10 ul of cdk9/cyclinT1, 0.5 ul of test compound in dimethyl sulfoxide is added. 5TAMRA-cdk7tide and ATP are mixed. 10 ul of the 5TAMRA-cdk7tide/ATP mix is added to start the reaction. The reaction is allowed to proceed for 4.5 hrs. 60 uL of IMAP Progressive Binding Reagent is added. After >1 hr of incubation, plates are read on the Envision 2101 from Perkin-Elmer. The assay is run in a 384-well format using black Corning plates, cat#3573.
Background: Polarisation of emitted light reports the rotation of a fluorescent probe.
For `N[C@H]1CC[C@H](Nc2cc(-c3cncc(NCc4cccc(F)c4)n3)c(Cl)cn2)CC1` [Compound 101], the midpoint of inhibition, the IC50, lay at 7.95 nM.
`CC(C)CN1CCC(Nc2cc(-c3cccc(NCc4cccc(F)c4)n3)c(Cl)cn2)CC1` [Compound 102] displayed an IC50 of 121 nM.
Under `CN1CCC(Nc2cc(-c3cccc(NCc4cccc(F)c4)n3)c(Cl)cn2)CC1` [Compound 103] stands 134 nM; under `N[C@H]1CC[C@H](Nc2cc(-c3cccc(NC[C@H]4CCCO4)n3)c(Cl)cn2)CC1` [Compound 104], 141 nM.
Under `CN(CC1CCOCC1)c1cccc(-c2cc(N[C@H]3CC[C@H](N)CC3)ncc2Cl)n1` [Compound 108] stands 7.95 nM; under `Nc1ncc(CNc2cccc(-c3cc(N[C@H]4CC[C@H](N)CC4)ncc3Cl)n2)cn1` [Compound 109], 15.8 nM.
Then `CN1CCN(C[C@H]2CC[C@H](Nc3cc(-c4cccc(NCc5cccc(F)c5)n4)c(Cl)cn3)CC2)CC1` [Compound 111], with 30.8 nM; and `Fc1cccc(CNc2cccc(-c3cc(N[C@H]4CC[C@H](CN5CCCC5)CC4)ncc3Cl)n2)c1` [Compound 112], with 27.3 nM.
Compound `CNC(=O)[C@H]1CC[C@H](Nc2cc(-c3cccc(NCc4cccc(F)c4)n3)c(Cl)cn2)CC1` [Compound 113] registered an IC50 of 50.2 nM.
Under `O[C@H]1CC[C@H](Nc2cc(-c3cccc(NCc4cccc(F)c4)n3)c(Cl)cn2)CC1` [Compound 114] stands 7.95 nM; under `Fc1cccc(CNc2cccc(-c3cc(N[C@H]4CC[C@H](N5CCCCC5)CC4)ncc3Cl)n2)c1` [Compound 115], 7.95 nM.
Turning to `Fc1cccc(CNc2cccc(-c3cc(N[C@H]4CC[C@H](N5CCOCC5)CC4)ncc3Cl)n2)c1` [Compound 116], the IC50 is 7.95 nM. This counts as single-digit nanomolar.
Then `NCCNc1cccc(-c2cc(N[C@H]3CC[C@H](O)CC3)ncc2Cl)n1` [Compound 117], with 124 nM; and `NCCCNc1cccc(-c2cc(N[C@H]3CC[C@H](O)CC3)ncc2Cl)n1` [Compound 118], with 139 nM; and `O[C@H]1CC[C@H](Nc2cc(-c3cccc(NCC4CCNCC4)n3)c(Cl)cn2)CC1` [Compound 119], with 155 nM.
Under `O[C@H]1CC[C@H](Nc2cc(-c3cccc(NCc4cccnc4)n3)c(Cl)cn2)CC1` [Compound 120] stands 45.6 nM.
Then `O[C@H]1CC[C@H](Nc2cc(-c3cccc(NC[C@H]4CCCNC4)n3)c(Cl)cn2)CC1` [Compound 121], with 10500 nM; and `O[C@H]1CC[C@H](Nc2cc(-c3cccc(NC[C@@H]4CCCNC4)n3)c(Cl)cn2)CC1` [Compound 123], with 42.8 nM.
`CC(=O)NCCNc1cccc(-c2cc(N[C@H]3CC[C@H](O)CC3)ncc2Cl)n1` [Compound 124] had an IC50 of 116 nM.
Then `O[C@H]1CC[C@H](Nc2cc(-c3cccc(NCC4CCOCC4)n3)c(Cl)cn2)CC1` [Compound 126], with 33.3 nM.
Under `O[C@H]1CC[C@H](Nc2cc(-c3cccc(NCC4CCCOC4)n3)c(Cl)cn2)CC1` (stereo partly shown) [Compound 128] stands 33.4 nM; under `O[C@H]1CC[C@H](Nc2cc(-c3cccc(NC4CCOCC4)n3)c(Cl)cn2)CC1` [Compound 129], 390 nM.
Then `O[C@H]1CC[C@H](Nc2cc(-c3cccc(N4CCOCC4)n3)c(Cl)cn2)CC1` [Compound 131], with 470 nM.
Take `O[C@H]1CC[C@H](Nc2cc(-c3cccc(NCC4CCCCC4)n3)c(Cl)cn2)CC1` [Compound 132]: inhibition was half-maximal at 14.4 nM (IC50).
As for `O[C@H]1CC[C@H](Nc2cc(-c3cccc(NCc4cc(F)cc(F)c4)n3)c(Cl)cn2)CC1` [Compound 133], half-maximal inhibition (IC50) was put at 7.95 nM.
Then `O[C@H]1CC[C@H](Nc2cc(-c3cccc(NCc4ccc(F)cc4)n3)c(Cl)cn2)CC1` [Compound 134], with 10.5 nM; and `O[C@H]1CC[C@H](Nc2cc(-c3cccc(NCC4COCCO4)n3)c(Cl)cn2)CC1` (stereo partly shown) [Compound 135], with 142 nM.
Then `NC(=O)c1ccc(-c2cc(N[C@H]3CC[C@H](N)CC3)ncc2Cl)nc1NCc1cccc(F)c1` [Compound 138], with 522 nM; and `N[C@H]1CC[C@@H](Nc2cc(-c3cccc(NCc4cccc(F)c4)n3)c(Cl)cn2)CC1` [Compound 139], with 30.1 nM.
Turning to `Fc1cccc(CNc2cccc(-c3cc(NC4CCCC4)ncc3Cl)n2)c1` [Compound 140], the concentration for half-maximal inhibition (IC50) was 12.6 nM.
Then `Fc1cccc(CNc2cccc(-c3cc(NC4CCCCC4)ncc3Cl)n2)c1` [Compound 141], with 205 nM; and `Fc1cccc(CNc2cccc(-c3cc(NC4CCOCC4)ncc3Cl)n2)c1` [Compound 142], with 25.6 nM.
Then `Fc1cccc(CNc2cccc(-c3cc(NCC4CCOCC4)ncc3Cl)n2)c1` [Compound 143], with 22.7 nM; and `NCCCNc1cc(-c2cccc(NCc3cccc(F)c3)n2)c(Cl)cn1` [Compound 144], with 15.8 nM; and `OCCCNc1cc(-c2cccc(NCc3cccc(F)c3)n2)c(Cl)cn1` [Compound 146], with 7.95 nM.
Then `COCCCNc1cc(-c2cccc(NCc3cccc(F)c3)n2)c(Cl)cn1` [Compound 147], with 19.4 nM.
The compound `Fc1cccc(CNc2cccc(-c3cc(N[C@@H]4CCCOC4)ncc3Cl)n2)c1` [Compound 148] yielded an IC50 of 15600 nM.
Then `Fc1cccc(CNc2cccc(-c3cc(NC4CCC(F)(F)CC4)ncc3Cl)n2)c1` [Compound 149], with 516 nM.
Then `Fc1cccc(CNc2cccc(-c3cc(N[C@H]4CCCOC4)ncc3Cl)n2)c1` [Compound 150], with 6510 nM; and `N[C@H]1CCCC[C@H]1Nc1cc(-c2cccc(NCc3cccc(F)c3)n2)c(Cl)cn1` [Compound 153], with 1550 nM.
Under `CCOC(=O)c1coc(N[C@H]2CC[C@H](Nc3cc(-c4cccc(NCc5cccc(F)c5)n4)c(Cl)cn3)CC2)n1` [Compound 155, Ethyl 2-(trans-4-(5′-chloro-6-(3-fluorobenzylamino)-2,4′-bipyridin-2′-yl-amino)cyclohexylamino)oxazole-4-carboxylate] stands 23 nM; under `COCCN[C@H]1CC[C@H](Nc2cc(-c3cccc(NCc4cccc(F)c4)n3)c(Cl)cn2)CC1` [Compound 157], 7.9 nM.
Consider `CN1CCN([C@H]2CC[C@H](Nc3cc(-c4cccc(NCc5cccc(F)c5)n4)c(Cl)cn3)CC2)CC1` [Compound 158], for which it took 11 nM to reach half-maximal inhibition (IC50). This IC50 and that of the compound before are within 1.5-fold of each other.
In the case of `NCCNc1cc(-c2cccc(NCc3cccc(F)c3)n2)c(Cl)cn1` [Compound 159], 1380 nM corresponded to half-maximal inhibition (IC50).
Then `OCCNc1cc(-c2cccc(NCc3cccc(F)c3)n2)c(Cl)cn1` [Compound 160], with 19 nM; and `CN(C)CCCCNc1cc(-c2cccc(NCc3cccc(F)c3)n2)c(Cl)cn1` [Compound 161], with 26 nM.
Then `Fc1cccc(CNc2cccc(-c3cc(NCC4CCNCC4)ncc3Cl)n2)c1` [Compound 162], with 14 nM.
Then `CN1CCC(CNc2cc(-c3cccc(NCc4cccc(F)c4)n3)c(Cl)cn2)CC1` [Compound 163], with 13 nM; and `Fc1cccc(CNc2cccc(-c3cc(NC[C@H]4CCCNC4)ncc3Cl)n2)c1` [Compound 164], with 39 nM; and `Fc1cccc(CNc2cccc(-c3cc(NCC[C@H]4CCCNC4)ncc3Cl)n2)c1` [Compound 165], with 7.9 nM.
With `Fc1cccc(CNc2cccc(-c3cc(NC[C@@H]4CCCNC4)ncc3Cl)n2)c1` [Compound 166], the concentration for half-maximal inhibition (IC50) was found to be 27 nM.
Then `Fc1cccc(CNc2cccc(-c3cc(NCC[C@@H]4CCCNC4)ncc3Cl)n2)c1` [Compound 167], with 18 nM; and `Fc1cccc(CNc2cccc(-c3cc(NCCN4CCNCC4)ncc3Cl)n2)c1` [Compound 168], with 37 nM.
For `N[C@H]1CC[C@H](CNc2cc(-c3cccc(NCc4cccc(F)c4)n3)c(Cl)cn2)CC1` [Compound 169], the half-inhibitory concentration (IC50) was found to be 9 nM.
Compound `CN1CCN(CCNc2cc(-c3cccc(NCc4cccc(F)c4)n3)c(Cl)cn2)CC1` [Compound 170] came in with an IC50 of 44 nM.
Turning to `Fc1cccc(CNc2cccc(-c3cc(NCCN4CCOCC4)ncc3Cl)n2)c1` [Compound 171], the IC50 came out at 218 nM.
Under `CC(C)Nc1cc(-c2cccc(NCc3cccc(F)c3)n2)c(Cl)cn1` [Compound 172] stands 15 nM; under `CCCCNc1cc(-c2cccc(NCc3cccc(F)c3)n2)c(Cl)cn1` [Compound 173], 62 nM.
In the case of `Fc1cccc(CNc2cccc(-c3cc(NCCC4CCOCC4)ncc3Cl)n2)c1` [Compound 174], the IC50 turned out to be 29 nM.
Under `Fc1cccc(CNc2cccc(-c3cc(NCCc4cccnc4)ncc3Cl)n2)c1` [Compound 175] stands 24 nM.
Then `CNc1cc(-c2cccc(NCc3cccc(F)c3)n2)c(Cl)cn1` [Compound 178, 5′-chloro-N6-(3-fluorobenzyl)-N2′-methyl-2,4′-bipyridine-2′,6-diamine], with 103 nM.
